What was measured:
Details in all cases: 25 µM pACP, 24 h, maintenance medium 1% FBS, ratio of viability to vehicle (PBS), at least three technical repetitions
HT29 = assay: MTT primary screening of anticancer activity, HT29; type: cell-based, Human
Source text: (§1) We successfully chemically synthesized 40 pACPs for the purpose of in vitro or in vivo characterization of their potential anticancer efficacy. In the initial step, we conducted an in vitro primary screen of these 40 pACPs using a panel of 16 different cancer cell lines, including four human CRC lines (HT29, Caco2, HCT116, and […]), as well as 12 other cancer models (Table S4, Supporting Information). We deliberately selected a diverse panel of cell lines to assess the effect of pACPs across various genetic backgrounds. Briefly, the cancer cells were cultured in specific media (details provided in the Experimental Section) and then treated with pACPs at a final concentration of 25 µM. Peptides with minimum effective inhibition concentrations >25 µM were considered non‐ACPs. After exposure to pACPs, the survival rate of the cancer cells was measured using the MTT assay. Remarkably, 39 out of the 40 pACPs (97.5%) induced at least 20% inhibition in at least one cell line (Figure 3a and Table S5, Supporting Information). […] Thus, our method successfully identified pACPs with a very high rate of anticancer effects across various cancer cell lines.
(§2) To evaluate the activity of the 40 potentially effective pACPs, a panel of 16 cancer cell lines was treated, including human CRC cell lines (HT29, Caco‐2, HCT116). Details of the cell lines used, respective media, and culture conditions were presented in Table S1 (Supporting Information). Once the cells reached 60% confluence, it was incubated with each candidate peptide at a concentration of 25 µM pACPs for 24 h. Concurrently, the complete medium was replaced with a maintenance medium containing only 1% FBS. Subsequently, the viability of each cell line using the MTT Cell Proliferation and Cytotoxicity Assay Kit according to the manufacturer's instructions was assessed. […] For the CRC cell line CT26, it was calculated the CC50 value using two peptides (pACP1780 and pACP2283) with relevant data presented in Table S6 (Supporting Information). The calculation was performed using an online tool: https://www.aatbio.com/tools/ic50‐calculator.

CT26 = assay: MTT primary screening of anticancer activity, CT26; type: cell-based, Murine
Source text: as §1, §2

LCC = assay: MTT primary screening of anticancer activity, LCC; type: cell-based
Source text: as §1, §2

Caco2 = assay: MTT primary screening of anticancer activity, Caco2; type: cell-based, Human
Source text: as §1, §2

BT474 = assay: MTT primary screening of anticancer activity, BT474; type: cell-based
Source text: as §1, §2

B16 = assay: MTT primary screening of anticancer activity, B16; type: cell-based, Mouse
Source text: as §1, §2

MDA-MB-468 = assay: MTT primary screening of anticancer activity, MDA-MB-468; type: cell-based
Source text: as §1, §2

MDA-MB-453 = assay: MTT primary screening of anticancer activity, MDA-MB-453; type: cell-based
Source text: as §1, §2

EFM192A = assay: MTT primary screening of anticancer activity, EFM192A; type: cell-based
Source text: as §1, §2

MDA-MB-231 = assay: MTT primary screening of anticancer activity, MDA-MB-231; type: cell-based
Source text: as §1, §2

HCT116 = assay: MTT primary screening of anticancer activity, HCT116; type: cell-based, Human
Source text: as §1, §2

SK-BR-3 = assay: MTT primary screening of anticancer activity, SK-BR-3; type: cell-based
Source text: as §1, §2

MDA-MB-436 = assay: MTT primary screening of anticancer activity, MDA-MB-436; type: cell-based
Source text: as §1, §2

T47D = assay: MTT primary screening of anticancer activity, T47D; type: cell-based
Source text: as §1, §2

MCF7 = assay: MTT primary screening of anticancer activity, MCF7; type: cell-based
Source text: as §1, §2

Hela = assay: MTT primary screening of anticancer activity, Hela; type: cell-based, Human
Source text: as §1, §2

Row | Sequence | Survival rate of cancer cells in primary screening (HT29) | Survival rate of cancer cells in primary screening (CT26) | Survival rate of cancer cells in primary screening (LCC) | Survival rate of cancer cells in primary screening (Caco2) | Survival rate of cancer cells in primary screening (BT474) | Survival rate of cancer cells in primary screening (B16) | Survival rate of cancer cells in primary screening (MDA-MB-468) | Survival rate of cancer cells in primary screening (MDA-MB-453) | Survival rate of cancer cells in primary screening (EFM192A) | Survival rate of cancer cells in primary screening (MDA-MB-231) | Survival rate of cancer cells in primary screening (HCT116) | Survival rate of cancer cells in primary screening (SK-BR-3) | Survival rate of cancer cells in primary screening (MDA-MB-436) | Survival rate of cancer cells in primary screening (T47D) | Survival rate of cancer cells in primary screening (MCF7) | Survival rate of cancer cells in primary screening (Hela)
1 | HPGCRKAPGCLCTGVIPSAAIPGTGFEIGGAGCFPLALNCNCATLGKV [pACP631] | 1.00 | 1.00 | 1.00 | 1.00 | 1.00 | 0.76 | 1.00 | 1.00 | 1.00 | 1.00 | 1.00 | 1.00 | 1.00 | 0.79 | 1.00 | 1.00
2 | IPNKKAGSRCLSKKCLLPAKRAFEIHFLTQLTGDIKGI [pACP766] | 0.47 | 1.00 | 1.00 | 0.68 | 0.71 | 1.00 | 1.00 | 1.00 | 1.00 | 1.00 | 1.00 | 1.00 | 0.52 | 0.61 | 0.59 | 0.68
3 | IYRKGTCADCAQGGVCTGHCSNKKTCAALKGVDKIAEDLGRGIK [pACP822] | 1.00 | 1.00 | 1.00 | 1.00 | 1.00 | 0.69 | 1.00 | 1.00 | 1.00 | 1.00 | 1.00 | 1.00 | 1.00 | 0.63 | 0.78 | 1.00
4 | KFCSSFFKSLQFPKAETLVGFKGKALKISNVLIKKSPIIK [pACP860] | 1.00 | 1.00 | 1.00 | 1.00 | 0.70 | 0.77 | 0.60 | 1.00 | 1.00 | 1.00 | 1.00 | 1.00 | 1.00 | 0.75 | 0.78 | 0.78

From article PMC10477861, “Efficient Mining of Anticancer Peptides from Gut Metagenome” (Advanced Science, 2023)
